Measurements taken from patent publication US12624068B2, “Exon skipping by peptide nucleic acid derivatives” (OliPass Corporation, priority 2016, dated 2026).
{Fethoc} = N-terminal Fethoc capping group (publication's abbreviation); [C(1O2)] = modified PNA monomer acting as cytosine, C(pOq) type, 1O2; [A(5)] = modified PNA monomer acting as adenine, A(p) type, p=5; [G(6)] = modified PNA monomer acting as guanine, G(p) type, p=6; {NH2} = C-terminal non-substituted amino (amide) group

Legend:
[1] = system: secretion of kynurenine in SKOV3 cells; assay: Kynurenine secretion assay in SKOV3 cells; assay type: cell-based, human; settings: 24 hours, with 10 ng/mL γ-interferon
Method: The functional activity of “IDO-ASO 1” was evaluated for its ability to inhibit the secretion of kynurenine in SKOV3 cells as follows.
[Kynurenine Secretion Assay] […] (3 dishes per concentration) Cells were treated with the ASO along with 10 ng/mL γ-interferon to increase the kynurenine secretion. 24 hours later, 200 μL of the culture medium was sampled from each culture dish and mixed with 100 μL 30% trichloroacetic acid. The mixture was vortexed and subjected to centrifugation at 8,000 g for 5 min. 75 μL of the resulting supernatant was mixed with 75 μL Ehrlich reagent (0.8% p-dimethylamino-benzaldehyde in acetic acid), and the mixture was subjected to a quantification for kynurenine at 490 nm on an ELISA reader. [PLOS One 5(8): e63301 (2013)]

human IDO1 pre-mRNA = assay: IDO1 nested PCR for exon skipping in SKOV3 cells; assay type: cell-based; settings: 48 hours
Method: “IDO-ASO 1” was evaluated for its ability to induce exon skipping in SKOV3 cells (Cat. Number HTB-77, ATCC) by IDO1 nested PCR as follows. [Cell Culture & ASO Treatment] SKOV3 (human ovary adenocarcinoma) cells were subcultured in 60 mm culture dish containing 5 mL McCoy's 5A modified medium supplemented with 10% FBS, 1% streptomycin/penicillin, 1% L-glutamine, and 1% sodium pyruvate under 5% CO2 at 37° C., and treated with “IDO-ASO 1” for 48 hours at 0 zM (negative control), 10 zM, 100 zM or 1 aM. [RNA Extraction & cDNA Synthesis by One-Step RT-PCR] Total RNA was extracted from the cells using “Universal RNA Extraction Kit” (Cat. Number 9767, Takara) according to the manufacturer's instructions. […] NO: 114); and IDO-exon 10_reverse: (5'→3') […] [Nested PCR Amplification] 1 μL of cDNA was further amplified in a 20 μL nested PCR reaction (Cat. No. K2612, Bioneer) against a set of exon-specific primers [IDO-exon 4_forward: (5'→3') […] NO: 116); and IDO-exon 9_reverse: (5'→3') […] [Identification of Exon Skipping Product] The PCR products were subjected to electrophoretic separation on a 2% agarose gel. The bands of target size were collected and analyzed by Sanger sequencing. […] [ASO Treatment] SKOV3 cells grown in 60 mm culture dish were treated with “IDO-ASO 5” at 0 (negative control), 1, 3, 10, 30 or 100 aM for 48 hours. [cDNA Synthesis by One-step PCR] […] NO: 119); and IDO-exon 8_reverse: (5'→3') […] [Nested PCR Amplification] 1 μL of cDNA was further amplified in a 20 μL nested PCR (Cat. No. K2612, Bioneer) reaction using a set of exon-specific primers [IDO-exon 1n_forward: (5'→3') […] NO: 121); and IDO-exon 8n_reverse: (5'→3') […] “IDO-ASO 6” was evaluated for its ability to induce exon skipping in SKOV3 cells by IDO1 nested PCR as described in “IDO1 Example 3” unless noted otherwise.

human IL-2 mRNA = assay: IL-2 qPCR in Jurkat cells; assay type: cell-based; settings: 24 hours
Method: Down-regulation of the PD-1 activity has been known to upregulate the expression of interleukin 2 (IL-2). [Am. J. Clin. Oncol. Vol 39(1), 98-106 (2016)] […] [Cell Culture & ASO Treatment] Jurkat cells grown in 60 mm culture dish were activated with an anti-CD3 antibody (Cat. Number 16-0037, eBioscience) at 1 μg/mL and an anti-CD28 antibody (Cat. No. 16-0289, eBioscience) at 0.5 μg/mL for 48 hours. Then the culture medium was replaced with fresh medium, and treated with “PD-ASO 3” at 0 (negative control), 10, 100 or 1,000 aM for 24 hours. (4 culture dishes per ASO concentration) [RNA Extraction and cDNA Synthesis] Total RNA was extracted using RNeasy mini prep kit (Qiagen, USA) according to the manufacturer's protocol. […] [qPCR by SYBR] 1 μL of each cDNA solution was subjected to a 20 μL qPCR amplifications against a set of primers targeting the IL-2 mRNA [IL-2_forward: (5'→3') […] NO: 161); and IL-2_reverse: (5'→3') […] NO: 162)] according to the following cycle conditions: 20 seconds at 95° C., 30 seconds at 56° C., and 40 seconds at 72° C. for 40 cycles. The qPCR reaction was probed with SYBR (Bio-Rad, USA).

human PD-1 mRNA = assay: PD-1 nested qPCR in Jurkat cells; assay type: cell-based; settings: 24 hours; for decrease of PD-1 mRNA level (nested qPCR): activated Jurkat cells
Method: [Cell Culture & ASO Treatment] Jurkat cells grown in 60 mm culture dish were activated with an anti-CD3 antibody (Cat. Number 16-0037, eBioscience) at […] and an anti-CD28 antibody (Cat. No. 16-0289, eBioscience) at 0.5 μg/mL for 48 hours. Then the culture medium was replaced with fresh medium, and treated with “PD-ASO 3” at 0 (negative control), 10, 100 or 1,000 aM for 24 hours. (4 culture dishes per ASO concentration) [RNA Extraction and cDNA Synthesis by One Step RT-PCR] Total RNA was extracted using RNAeasy mini prep kit (Qiagen, USA) according to the manufacturer's protocol. […] NO: 157); and PD-exon 5_reverse: (5'→3') […] NO: 158)]. Cycle conditions: 50° C. for 30 minutes and 94° C. for 2 minutes, which was followed by 30 cycles of 30 seconds at 94° C., 30 seconds at 53° C., and 1 minutes at 72° C. [Nested qPCR by SYBR] […] NO: 159); and PD-exon 2_reverse: (5'→3') […] NO: 160)] according to the following cycle conditions: 20 seconds at 95° C., 30 seconds at 56° C., and 40 seconds at 72° C. for 40 cycles. The qPCR reaction was probed with SYBR (Bio-Rad, USA).

human PD-1 pre-mRNA = assay: PD-1 nested PCR for exon skipping in Jurkat cells; assay type: cell-based; settings: 5 hours
Method: “PD-ASO 3” was evaluated for its ability to induce the skipping of the human PD-1 exon 2 in Jurkat cells as follows. [Cell Culture & ASO Treatment] Jurkat cells (Cat. Number TIB-152, ATCC) were maintained in RPMI-1640 supplemented with 10% FBS and 1% streptomycin/penicillin. Jurkat cells grown in 60 mm culture dish containing 5 mL culture medium were treated for 5 hours with “PD-ASO 5” at 0 (negative control), 10, 100 or 1,000 aM. [RNA Extraction and cDNA Synthesis by One Step RT-PCR] Total RNA was extracted using RNAeasy mini prep kit (Qiagen, USA) according to the manufacturer's protocol. […] NO: 153); and PD-exon 5_reverse: (5'→3') […] NO: 154)]. Cycle conditions: 50° C. for 30 minutes and 94° C. for 2 minutes, which was followed by 30 cycles of 30 seconds at 94° C., 30 seconds at 53° C., and 1 minutes at 72° C. [Nested PCR Amplification] 1 μL of cDNA diluted by 100× was further amplified in a 20 μL nested PCR (Invitrogen, USA) using the following cycle conditions: 20 seconds at 95° C., 30 seconds at 56° C., and 40 seconds at 72° C. for 40 cycles against a set of exon-specific primers [PD-exon 1n_forward: (5'→3') […] NO: 155); and PD-exon 5n_reverse: (5'→3') […] NO: 156)]. [Identification of Exon Skipping Products] The resulting nested PCR products were subjected to electrophoretic separation on a 2% agarose gel. The bands of target size were collected and analyzed by Sanger sequencing.

[2] = system: melanogenesis in B16F10 cells; assay: Melanin content (melanogenesis) in B16F10 cells; assay type: cell-based, mouse; settings: 24 hours
Method: “TYR-ASO 4” was evaluated for its ability to inhibit the melanogenesis in B16F10 cells as described below.
B16F10 cells grown in 60 mm culture dish containing 5 mL culture medium were treated either with “TYR-ASO 4” at 0 (negative control) or 1 to 1,000 aM, or with 10 or 100 μg/mL arbutin as a positive control. (2 culture dishes per dose) 24 hours later, the cells were subjected to lysis with 200 μL 1N NaOH. Each lysate was collected in 1.5 mL e-tube, and kept overnight at room temperature. The melanin content in each lysate was determined by absorbance at 475 nm on an ELISA reader. The experiment was repeated four times using cells at different passage. The four sets of the melanin content data were pooled for statistical analysis by student's t-test against the melanin content without treatment (negative control).

[3] = activated Jurkat cells, 1,000 aM

**Q.** With “Fethoc-GG(6)A-A(5)TT-A(5)CC(1O2)-TAA(5)-A-NH2 (GGAATTACCTAAA; splice-switching; all peptide nucleic acid (PNA), [G(6)] at 2, [A(5)] at 4, 7, 12, [C(1O2)] at 9, 5' {Fethoc}, 3' {NH2}; peptide nucleic acid backbone) [IDO-ASO 1]” as the compound, how does the “decrease of kynurenine secretion” value ([1]; 1 fM) read?
**A.** The value was about 40%.

**Q.** And the secretion of kynurenine ([1]; 10 zM to 1 fM except 1 aM)?
**A.** Its secretion of kynurenine is “significantly (student's t-test) decreased”.

**Q.** And the “intensity of the full-length IDO-1 mRNA by nested PCR” value (human IDO1 pre-mRNA; 1 aM)?
**A.** The value was “increased”.

**Q.** What about the “intensity of the full-length IDO-1 mRNA by nested PCR” value (human IDO1 pre-mRNA; 10 or 100 zM) of the same compound?
**A.** The value was “decreased”.

**Q.** What about the “IDO1 exon skipping band by nested PCR” value (human IDO1 pre-mRNA; 10 zM or 1 aM) of the same compound?
**A.** The value was “not detected”.

**Q.** And the “skipping of IDO1 exons 6-7 by nested PCR” value (human IDO1 pre-mRNA; 100 zM)?
**A.** Its value is “detected”.

**Q.** “Fethoc-CG(6)C-A(5)CC-TG(6)T-CA(5)C-C(1O2)C-NH2 (CGCACCTGTCACCC; splice-switching; all peptide nucleic acid (PNA), [G(6)] at 2, 8, [A(5)] at 4, 11, [C(1O2)] at 13, 5' {Fethoc}, 3' {NH2}; peptide nucleic acid backbone) [PD-ASO 3]” was tested. Which “increase of IL-2 mRNA level (qPCR)” value (human IL-2 mRNA; activated Jurkat cells, 10 aM) did it give?
**A.** Its value is about 140%.

**Q.** What about the “increase of IL-2 mRNA level (qPCR)” value (human IL-2 mRNA; activated Jurkat cells, 100 aM) of the same compound?
**A.** The value was 120%.

**Q.** What about the “increase of IL-2 mRNA level (qPCR)” value (human IL-2 mRNA; [3]) of the same compound?
**A.** The value was 40%.

**Q.** What about the “decrease of PD-1 mRNA level (nested qPCR)” value (human PD-1 mRNA; 10 and 100 aM) of the same compound?
**A.** Its value is over 80%.

**Q.** What about the “PD-1 mRNA level relative to the negative control level (nested qPCR)” value (human PD-1 mRNA; [3]) of the same compound?
**A.** Its value is about 55%.

**Q.** And the “PD-1 exon skipping by nested PCR” value (human PD-1 pre-mRNA; Jurkat cells, 10 and 100 aM)?
**A.** Its value is “yielded a PCR product band corresponding to the skipping of exon 2”.

**Q.** And the “PD-1 exon skipping by nested PCR” value (human PD-1 pre-mRNA; Jurkat cells, 1,000 aM)?
**A.** Its value is “the PCR product of exon 2 skipping disappeared”.

**Q.** With `OC[C@H]1O[C@@H](Oc2ccc(O)cc2)[C@H](O)[C@@H](O)[C@@H]1O` [arbutin] as the compound, how does the “decrease of melanin content” value ([2]; 10 μg/mL) read?
**A.** The value was about 15%.

**Q.** What about the “decrease of melanin content” value ([2]; 100 μg/mL) of the same compound?
**A.** The value was 25%.

**Q.** How did the “decrease of PD-1 mRNA level (nested qPCR)” value (human PD-1 mRNA; 100 and 1,000 aM) turn out when “Fethoc-C(1O2)TG(6)-GG(6)G-AG(6)T-CTG-A(5)G-NH2 (CTGGGGAGTCTGAG; splice-switching; all peptide nucleic acid (PNA), [C(1O2)] at 1, [G(6)] at 3, 5, 8, [A(5)] at 13, 5' {Fethoc}, 3' {NH2}; peptide nucleic acid backbone) [PD-ASO 1]” was run?
**A.** Its value is about 60%.
